Among the data in the NIST ThermoML archive (doi:10.1016/j.fluid.2018.07.028) are activity coefficient values, retold here.

The data set can be described thus: activity coefficient (dimensionless); of the first substance listed, at infinite dilution; xn = mol fraction of the nth substance listed. The note with it: 101.33 kPa, Liquid, Chromatography, x1 = 0.

± gives the expanded uncertainty stated by the source.

Regarding `CCOC(C)=O` [ethyl acetate] + CCCC[P+](CCCC)(CCCC)CCCC.O=S(=O)([N-]S(=O)(=O)C(F)(F)F)C(F)(F)F, the activity coefficient came to 0.835 ± 0.054 (358.15 K); 0.869 ± 0.056 (368.15 K); 0.905 ± 0.057 (378.15 K); 0.939 ± 0.059 (388.15 K); 0.975 ± 0.061 (398.15 K); 1.01 ± 0.063 (408.15 K).
Turning to `C1CCCCCC1` [cycloheptane] + CCCC[P+](CCCC)(CCCC)CCCC.O=S(=O)([N-]S(=O)(=O)C(F)(F)F)C(F)(F)F, the activity coefficient (358.15 K) was 3.42 ± 0.23; the activity coefficient (368.15 K) came to 3.41 ± 0.23; the activity coefficient (378.15 K) was 3.4 ± 0.23; the activity coefficient (388.15 K) was 3.39 ± 0.23; the activity coefficient (398.15 K) worked out at 3.38 ± 0.23; the activity coefficient (408.15 K) came out at 3.37 ± 0.23.
On to `O` [water] + CCCC[P+](CCCC)(CCCC)CCCC.O=S(=O)([N-]S(=O)(=O)C(F)(F)F)C(F)(F)F, for which the activity coefficient was determined as 4.2 ± 0.29 (358.15 K); 3.85 ± 0.26 (368.15 K); 3.53 ± 0.24 (378.15 K); 3.26 ± 0.22 (388.15 K); 3.02 ± 0.21 (398.15 K); 2.81 ± 0.19 (408.15 K).
Take `C=C(C)c1ccccc1` [(1-methylethenyl)benzene] + CCCC[P+](CCCC)(CCCC)CCCC.O=S(=O)([N-]S(=O)(=O)C(F)(F)F)C(F)(F)F: the activity coefficient by setting is: (358.15 K) 1.4 ± 0.09; (368.15 K) 1.46 ± 0.1; (378.15 K) 1.52 ± 0.1; (388.15 K) 1.58 ± 0.1; (398.15 K) 1.64 ± 0.11; (408.15 K) 1.7 ± 0.11.
With `C=CCCCC` [hex-1-ene] + CCCC[P+](CCCC)(CCCC)CCCC.O=S(=O)([N-]S(=O)(=O)C(F)(F)F)C(F)(F)F, the activity coefficient reads like this: (358.15 K) 3.15 ± 0.21; (368.15 K) 3.2 ± 0.22; (378.15 K) 3.24 ± 0.22; (388.15 K) 3.28 ± 0.22; (398.15 K) 3.32 ± 0.23; (408.15 K) 3.35 ± 0.23.
Turning to `CCC(C)(C)OC` [2-methoxy-2-methylbutane] + CCCC[P+](CCCC)(CCCC)CCCC.O=S(=O)([N-]S(=O)(=O)C(F)(F)F)C(F)(F)F, the activity coefficient is, setting by setting: (358.15 K) 2 ± 0.14; (368.15 K) 2.07 ± 0.14; (378.15 K) 2.13 ± 0.14; (388.15 K) 2.2 ± 0.15; (398.15 K) 2.26 ± 0.15; (408.15 K) 2.32 ± 0.16.
